In the supplement of paper PMC10307832:

Legend:
Test in all cases: relative viability (nuclei count vs DMSO), 5 days (fraction); higher = more cells survive
XMD8-85 + Palbociclib = compound: CN1CCN(CC1)C2=CC(=C(C=C2)NC3=NC=C4C(=N3)N(C5=CC=CC=C5C(=O)N4C)C)OC [XMD8-85] + CC(=O)c1c(C)c2cnc(Nc3ccc(N4CCNCC4)cn3)nc2n(C2CCCC2)c1=O [Palbociclib] (partner 0.5 µM)
In short: (§1)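 Values are medians from duplicate plates. Each reflects relative viability, defined as the nuclei count of treated wells over that of vehicle wells. Lung cancer cell lines in 1536-well plates were pin-tool dosed one day after seeding with one drug alone or with a fixed anchor-drug dose plus five library-drug doses (not always all listed) in √10 steps, then fixed, stained and imaged at 4× after 5 days.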

XMD8-85 + Luminespib = compound: CN1CCN(CC1)C2=CC(=C(C=C2)NC3=NC=C4C(=N3)N(C5=CC=CC=C5C(=O)N4C)C)OC [XMD8-85] + CCNC(=O)c1noc(-c2cc(C(C)C)c(O)cc2O)c1-c1ccc(CN2CCOCC2)cc1 [Luminespib] (partner 0.01 µM)
In short: as §1

XMD8-85 + AZD7762 = compound: CN1CCN(CC1)C2=CC(=C(C=C2)NC3=NC=C4C(=N3)N(C5=CC=CC=C5C(=O)N4C)C)OC [XMD8-85] + NC(=O)Nc1cc(-c2cccc(F)c2)sc1C(=O)N[C@H]1CCCNC1 [AZD7762] (partner 0.2 µM)
In short: as §1

4EGI-1 + Palbociclib = compound: O=C(O)C(Cc1ccccc1[N+](=O)[O-])=NNc1nc(-c2ccc(Cl)c(Cl)c2)cs1 (mixture of isomers) [4EGI-1] + CC(=O)c1c(C)c2cnc(Nc3ccc(N4CCNCC4)cn3)nc2n(C2CCCC2)c1=O [Palbociclib] (partner 0.5 µM)
In short: as §1

Cell Line | relative viability (XMD8-85 + Palbociclib; first compound 0.08 µM) | relative viability (XMD8-85 + Palbociclib; first compound 0.253 µM) | relative viability (XMD8-85 + Palbociclib; first compound 0.8 µM) | relative viability (XMD8-85 + Palbociclib; first compound 2.53 µM) | relative viability (XMD8-85 + Palbociclib; first compound 8 µM) | relative viability (XMD8-85 + Luminespib; first compound 0.08 µM) | relative viability (XMD8-85 + Luminespib; first compound 0.253 µM) | relative viability (XMD8-85 + Luminespib; first compound 0.8 µM) | relative viability (XMD8-85 + Luminespib; first compound 8 µM) | relative viability (XMD8-85 + AZD7762; first compound 0.08 µM) | relative viability (XMD8-85 + AZD7762; first compound 0.253 µM) | relative viability (XMD8-85 + AZD7762; first compound 0.8 µM) | relative viability (XMD8-85 + AZD7762; first compound 2.53 µM) | relative viability (XMD8-85 + AZD7762; first compound 8 µM) | relative viability (4EGI-1 + Palbociclib; first compound 0.5 µM) | relative viability (4EGI-1 + Palbociclib; first compound 1.581 µM) | relative viability (4EGI-1 + Palbociclib; first compound 5 µM) | relative viability (4EGI-1 + Palbociclib; first compound 15.81 µM) | relative viability (4EGI-1 + Palbociclib; first compound 50 µM) | relative viability (XMD8-85 + Luminespib; first compound 2.53 µM)
LXF-289 | 0.581 | 0.615 | 0.561 | 0.658 | 0.54 | 0.611 | 0.57 | 0.584 | 0.4 | 1.09 | 1.16 | 1.16 | 1.12 | 0.995 | 0.603 | 0.602 | 0.582 | 0.553 | 0.518 | 
LK-2 | 0.554 | 0.778 | 0.592 | 0.491 | 0.668 |  | 0.184 | 0.192 | 0.162 | 0.288 | 0.334 | 0.322 | 0.254 | 0.284 | 0.692 |  | 0.639 | 0.803 | 0.539 | 0.155
H3255 | 0.33 | 0.323 | 0.285 | 0.273 | 0.26 | 1.03 | 0.829 | 0.816 | 0.707 | 0.979 | 0.868 | 0.894 | 0.925 | 0.554 | 0.306 | 0.316 | 0.305 | 0.315 | 0.302 | 0.889
NCI-H2087 | 0.205 | 0.168 | 0.222 | 0.217 | 0.172 | 0.182 | 0.167 | 0.159 | 0.175 | 1.42 | 1.25 | 1.39 | 1.23 | 0.96 | 0.281 | 0.243 | 0.244 | 0.163 | 0.16 | 0.118
EMC-BAC-2 | 0.494 | 0.495 | 0.504 | 0.473 | 0.458 | 1.26 | 1.24 | 1.21 | 0.951 | 1.16 | 1.03 | 1.04 | 1.1 | 0.789 | 0.561 |  | 0.504 | 0.29 | 0.157 | 1.28
NCI-H2126 | 0.415 | 0.394 | 0.378 | 0.32 | 0.387 | 0.948 | 1 | 0.917 | 0.891 | 1.06 | 1.12 | 0.962 | 1.05 | 1.06 | 0.324 | 0.371 | 0.326 | 0.343 | 0.339 | 1.05
NCI-H441 | 0.206 | 0.209 | 0.197 | 0.195 | 0.2 | 0.299 | 0.333 | 0.4 | 0.231 | 1.21 | 1.01 | 1.12 | 1.11 | 0.562 | 0.283 | 0.2 | 0.23 | 0.185 | 0.146 | 0.356
NCI-H522 | 1.09 | 1.03 | 0.822 | 0.737 | 0.648 | 1.15 | 1.31 | 0.92 | 0.97 | 0.697 | 0.851 | 0.798 | 0.859 | 0.69 | 1.07 | 0.822 | 1.2 | 1.08 | 0.953 | 1.06
